Data published in US7662547B2, “Compositions and methods for detecting and treating HIV infections” (priority 2006, dated 2010).

Legend:
T cells = assay: Cell cycle analysis of T cells; assay type: cell-based, human
F-actin = assay: Competitive binding of phalloidin to F-actin; conditions: 120 nM
HIV-1 [1] = assay: HIV-1 infection of T cells pre-activated with PHA plus IL-2; assay type: cell-based, HIV-1NL4-3; conditions: similar Jas treatment (120 nM)
Experimental: (§1) Thus, the effect of Jas on T cell activity was determined. FIG. 3A illustrates inhibition of HIV-1 latent infection by Jas. Effects of Jas on LFA-1 activation also were tested. Jas treated or untreated resting T cells were activated by anti-CD3/CD28 bead and stained with human ICAM-1/Fc chimera and analyzed by flow cytometer. The effects of Jas on IL-2 secretion also were measured. […] Cells were treated with Jas for 2 hours, washed, infected with HIV-1 for 5 days, then activated by anti-CD3/CD28 bead. […] Following infection, cellular DNA was PCR amplified for viral late DNA and β-actin pseudogene. Cells were pre-activated with PHA plus IL-2, then treated and infected as in FIG. 3A. […] CEM-SS cell were treated and infected as in FIG. 3A. Effects of Jas on HIV-1 infection of resting T cells pre-stimulated with anti-CD4/CXCR4 bead (2 beads/cell) are shown in FIG. 3E. Pre-stimulated cells were treated and infected as in FIG. 3A.

HIV-1 [2] = assay: HIV-1 latent infection of resting CD4 T cells, viral replication assay (p24 ELISA) after anti-CD3/CD28 activation; assay type: cell-based, HIV-1NL4-3; conditions: for inhibition of HIV replication in resting T cells: 2 hours before infection
Experimental: Virus stocks of the HIV-1NL4-3 (Adachi et al. J Virol 59(2), 284-91 (1986)) were prepared by transfection of HeLa cells with cloned proviral DNA as described in Wu and Marsh (2001). Supernatant was harvested at 48 hours, and filtered through a 0.45 μm nitrocellulose membrane. Virus titer (TCID50) was measured by infection of a Rev-CEM indicator cell line which was constructed through stable integration of a Rev-dependent GFP expression lentiviral vector into CEM-SS. […] For infection of resting CD4 T cells, viruses were first titrated to determine minimal levels detectable by p24 ELISA in replication assays described below. Unless specified, for most replication assays, 10^3.5 to 10^4.5 TCID50 units of HIV-1 were used to infect 10^6 cells. For infection procedure, CD4 T cells were incubated with the virus for 2 hours, then washed twice with medium to remove unbound virus. Infected cells were resuspended into fresh RPMI 1604 medium supplemented with 10% heat-inactivated fetal bovine serum, penicillin (50 U/ml) and streptomycin (50 μg/ml) at a density of 10^6 per ml and incubated for 5 days without stimulation. Cells were activated at day 5 with anti-CD3/CD28 magnetic beads at 4 beads per cells. For viral replication assay, 10% of infected cells were taken at 1, 3, 5, 6, 7, 8, 9 days post infection. Cells were pelleted and the supernatant was saved for p24 ELISA. Levels of p24 in the supernatant were measured by using Coulter HIV-1 p24 Assay Kit (Beckman Coulter, Inc. Miami, Fla.). Plates were kinetically read using ELx808 automatic microplate reader (Bio-Tek Instruments, Inc. Winooski, Vt.) at 630 nm.
Resting CD4 T cells were treated with pertussis toxin (Sigma, St. Louis, Mo.) at a final concentration of 100 ng/ml for 2 hours, then infected with HIV-1. Following infection, cells were washed 2 to 3 times to remove cell-free virus and the inhibitor. Cells were treated with Jasplakinolide (Molecular Probes, Eugene, Oreg.) for 1 to 2 hours or Latrunculin A (Biomol, Plymouth Meeting, Pa.) for 5 minutes at various concentrations, washed twice with medium, then infected with HIV-1. Following infection, cells were washed twice to remove cell free virus. Cells were treated with 200 nM of Staurosporine (Biomol, Plymouth Meeting, Pa.) for 2 hours, then infected with HIV-1. Following infection, cells were washed twice to remove cell-free virus and the inhibitor.
Resting CD4 T cells were treated with S3 or Q104 for I to 2 hours, then infected with HIV-1. Following infection, cells were washed 2 to 3 times to remove cell-free virus and the peptides.
Effects of Jas on LFA-1 activation also were tested. Jas treated or untreated resting T cells were activated by anti-CD3/CD28 bead and stained with human ICAM-1/Fc chimera and analyzed by flow cytometer. The effects of Jas on IL-2 secretion also were measured. […] Cells were treated with Jas for 2 hours, washed, infected with HIV-1 for 5 days, then activated by anti-CD3/CD28 bead. […] Following infection, cellular DNA was PCR amplified for viral late DNA and β-actin pseudogene. Cells were pre-activated with PHA plus IL-2, then treated and infected as in FIG. 3A. […] CEM-SS cell were treated and infected as in FIG. 3A.

IL-2 secretion = assay: IL-2 ELISA of cell culture supernatant after T cell activation; assay type: cell-based, human
Experimental: IL-2 release into cell culture supernatant was detected by a human IL-2 ELISA development kit (PeproTech, Rocky Hill, N.J.) according to the manufacture's instruction. Briefly, each well of a plate was coated with 100 μl of capture antibody (1 μg/ml) and incubated overnight at room temperature, then washed and blocked with 300 μl of blocking solution for one hour at room temperature. Samples in plates were incubated for 1 hour at 37° C., then washed and incubated with 100 μl of detection antibody (0.5 μg/ml) for 1 hour at 37° C. Plates were washed and incubated with 100 μl of the avidin-peroxidase conjugate (1:2000 dilution) for 30 minutes at room temperature followed by washing and incubation with 100 μl of Tetramethylbenzidine (TMB) substrate buffer. Plates were kinetically read using ELx808 automatic microplate reader (Bio-Tek Instruments, Inc. Winooski, Vt.) at 630 nm.

HIV-1 [3] = assay: HIV-1 infection of transformed CEM-SS cells; assay type: cell-based, HIV-1NL4-3
Experimental: as §1

LFA-1 activation = LFA-1 activation staining (ICAM-1/Fc chimera, flow cytometry) of T cells activated by anti-CD3/CD28 bead; assay type: cell-based, human
Experimental: Half million CD4 T cells in 500 μl culture medium were treated with 5 μl of human IgG (Jackson Immuno Research, West Grove, Pa.) to block non-specific staining. Cells were stained with 10 μl (50 μg/ml) of human ICAM-1 Fc chimera (R&D System, Minneapolis, Minn.) for 20 min at 4° C. Cells were washed and blocked by 5 μl of mouse IgG (Jackson ImmunoResearch, West Grove, Pa.), followed by the addition of 10 μl of FITC labeled mouse anti-human Fc (Jackson ImmunoResearch, West Grove, Pa.), and incubated for 20 min at 4° C. Cells were finally washed and resuspended in 500 μl of 1% paraformaldehyde for flow cytometry.
as §1, with “Effects of Jas on HIV-1 infection of resting T cells pre-stimulated with anti-CD4/CXCR4 bead (2 beads/cell) are shown in FIG. 3E. Pre-stimulated cells were treated and infected as in FIG. 3A.” left out

## C/C1=C\[C@H](C)C[C@H](C)OC(=O)C[C@H](c2ccc(O)cc2)NC(=O)[C@@H](Cc2c(Br)[nH]c3ccccc23)N(C)C(=O)[C@H](C)NC(=O)[C@@H](C)C1 [Jas, Jasplakinolide]
T cells; 120 nM
  cell cycle arrest: no cell cycle arrest
T cells; 3μM
  cell cycle arrest: arrested cells in S phase
F-actin
  inhibition of subsequent competitive binding of phalloidin to F-actin: significantly inhibited
HIV-1 [1]
  inhibition of HIV replication in pre-activated T cells: no inhibition
HIV-1 [2]; 24 nM
  inhibition of HIV replication in resting T cells: partial inhibition
HIV-1 [2]; 120 nM
  inhibition of HIV replication in resting T cells: Complete inhibition
HIV-1 [2]; 120 nM, pre-stimulation 2 beads/cell
  inhibition of HIV replication in resting T cells pre-stimulated with CD4/CXCR4 bead: completely abolished the inhibition
HIV-1 [2]; 600 nM
  inhibition of HIV replication in resting T cells: Complete inhibition
IL-2 secretion; 120 nM and below
  effect on IL-2 secretion: no significant effect
IL-2 secretion; 600 nM and above
  effect on IL-2 expression following T cell activation: inhibited IL-2 expression
HIV-1 [3]; 3μM
  inhibition of HIV replication in GEM-SS: did inhibit HIV replication
HIV-1 [3]; similar Jas treatment (120 nM)
  inhibition of HIV replication in transformed CEM-SS: no inhibition
LFA-1 activation; 120 nM and below
  inhibition of LFA-1 activation: no detectable inhibition
LFA-1 activation; 3 1μM Jas
  inhibition of LFA-1 activation: greatly inhibited
